Read-outs that look alike come from different tables or passages of the source.
Test system: Ctenocephalides felis
Description: b) Ctenocephalides felis Adulticide Assay: C. felis Single Dose Screen
Mortality of fleas was the primary endpoint in the assay. Fleas were considered dead if they didn't move or were on their sides and unable to walk or right themselves. […] The concentration chosen (1.26 μg/cm^2) was higher than that known to kill 90% of cat fleas (LC90) using the reference compound, permethrin.
The test species was the cat flea (Ctenocephalides felis). The strain used was obtained from external suppliers as pupae and held in the laboratory under testing conditions until the adults had emerged. Fifteen (15) fleas were used in a minimum of four replicates against a single concentration level (approximately 60 fleas). The insects were selected to be in the adult life stage, aged between 3 and 7 days post emergence.
The compounds to be tested were supplied as solids and were prepared in acetone as described below prior to testing. Samples were stored in a refrigerator (5±1° C.) unless otherwise specified.
During the mortality testing, the temperature was maintained at 25±1° C. Humidity was maintained at 75±5%. The base (area=159 mm^2) of a 100 mL glass Erlenmeyer (conical) flask provided the treatment surface. Flasks were pretreated with Coatasil™ glass treatment to maximise bio-availability of test compounds by preventing them from binding to glass the surface. The base of the 100 mL Erlenmeyer flask was treated with 0.5 mL of test sample in acetone and gently swirled. This volume was sufficient to cover the base of the flask. Flasks were left to dry for 24 hours before flea exposure.
Adult cat fleas were placed into a sorting chamber, which allowed fleas to jump into the Erlenmeyer flasks. Fifteen (15) adult cat fleas were collected in each flask. The top of the flasks were then covered in Parafilm™ and small holes were made to allow gas exchange. A 0.5 mL volume of acetone as a solvent control was applied to the base of an Erlenmeyer flask and the testing proceeded in the same manner described above. Cat fleas in the treatment containers were held under testing conditions for 8, 24 and/or 48 hours. Mortality was recorded at 8, 24, 8 and 24, or 24 and 48 hours Pooled 8, 24, 8 and 24, and 24 and 48 hour mortality data were converted to percentages and are summarized by Table 21, below.

| SMILES | C. felis Mortality (%) 8 h (8 h, data from laboratory 1) [%] | C. felis Mortality (%) 24 h (24 h, data from laboratory 1) [%] | other results |
| --- | --- | --- | --- |
| CCN(c1ccc(Cl)cc1C(C)=NN1CCCCC1)S(=O)(=O)C(F)(F)F [Compound 135, N-[2-[1-(1-piperidyl)imino]ethyl-4-chlorophenyl]-N-ethyl-trifluoromethanesulfonamide] | – | – | C. felis Mortality (%) 8 h: 8%; C. felis Mortality (%) 24 h: 41% |
| CC(=NNc1ccccc1)c1cc(Cl)ccc1NS(=O)(=O)C(F)(F)F [Compound 12, N-[2-(1-phenylhydrazono)ethyl-4-chlorophenyl]-trifluoromethanesulfonamide] | – | – | C. felis Mortality (%) 8 h: 20^B % |
| O=S(=O)(Nc1ccc(Cl)cc1C(=NN1CCOCC1)c1ccccc1)C(F)(F)F [Compound 84] | 9 | 76 | – |
| CC(=NN(C)c1cnccn1)c1cc(Cl)ccc1NS(=O)(=O)C(F)(F)F [Compound 206] | – | – | C. felis Mortality (%) 8 h: 7%; C. felis Mortality (%) 24 h: 12% |
| CC(=NN(C)c1ccccc1)c1cc(NS(=O)(=O)C(F)(F)F)ccc1Cl [Compound 162] | 8 | 58 | – |
| CC(=NN1CCCCC1)c1ccccc1NS(=O)(=O)C(F)(F)F [Compound 176] | 7 | 31 | – |
| CC(=NN(c1ccc(C)cc1)C(C)C)c1cc(Cl)ccc1NS(=O)(=O)C(F)(F)F [Compound 102] | 3 | 90 | – |
| CC(=Nn1ncc2ccccc21)c1cc(Cl)ccc1NS(=O)(=O)C(F)(F)F [Compound 193] | 2 | 9 | – |
| CC(C)=CCN(c1ccc(Cl)cc1C(C)=NN(C)c1ccccc1)S(=O)(=O)C(F)(F)F [Compound 136] | 7 | 13 | – |
| CC(=NNC(=O)c1ccc(Cl)cc1Cl)c1cc(Cl)ccc1NS(=O)(=O)C(F)(F)F [Compound 61] | 12 | 45 | – |
| C=CCN(N=C(C)c1cc(Cl)ccc1NS(=O)(=O)C(F)(F)F)c1ccc(Cl)cc1 [Compound 171] | 7 | 54 | – |
| O=S(=O)(Nc1ccc(Cl)cc1C1=NN(c2cccc(F)c2)CC1)C(F)(F)F [Compound 232] | 7 | 27 | – |
| C/C(=N\N(C)c1nccc2ccccc12)c1cc(Cl)ccc1NS(=O)(=O)C(F)(F)F [Compound 209] | 7 | 18 | – |
| CC(=NN(C)c1ncccn1)c1cc(Cl)ccc1NS(=O)(=O)C(F)(F)F [Compound 190] | – | – | C. felis Mortality (%) 8 h: 2%; C. felis Mortality (%) 24 h: 15% |
| C/C(=N\NC(=O)Nc1ccc(OC(F)(F)F)cc1)c1cc(Cl)ccc1NS(=O)(=O)C(F)(F)F [Compound 207] | 5 | 8 | – |
| CC(=NNc1ccc(F)cc1)c1ccc(C(F)(F)F)cc1NS(=O)(=O)C(F)(F)F [Compound 180] | 0 | 16 | – |
| CC(=NN1CCCCC1)c1ccc(NS(=O)(=O)C(F)(F)F)cc1 [Compound 167] | 2 | 5 | – |
| CCCN(N=C(C)c1cc(Cl)ccc1NS(=O)(=O)C(F)(F)F)c1ccc(Cl)cc1Cl [Compound 31] | – | 85 | C. felis Mortality (%) 48 h (48 h, data from laboratory 1): 100% |
| O=S(=O)(Nc1ccc(Cl)cc1C(=NNc1ccc(Cl)cc1)c1ccccc1)C(F)(F)F [Compound 121] | 12 | 41 | – |
| CC(=Nn1c(C)nc2ccccc2c1=O)c1cc(Cl)ccc1NS(=O)(=O)C(F)(F)F [Compound 201] | 2 | 10 | – |
| CC(=NN(C)C)c1cc(Cl)ccc1NS(=O)(=O)C(F)(F)F [Compound 113] | 3 | 66 | – |

| SMILES | C. felis Mortality (%) 8 h (8 h, data from laboratory 1) [%] | C. felis Mortality (%) 24 h (24 h, data from laboratory 1) [%] | other results |
| --- | --- | --- | --- |
| CC(=Nn1cc2ccccc2n1)c1cc(Cl)ccc1NS(=O)(=O)C(F)(F)F [Compound 189] | 0 | 2 | – |
| O=S(=O)(Nc1ccc(Cl)cc1C(=NN1CCCCC1)c1ccccc1)C(F)(F)F [Compound 83] | 15 | 17 | – |
| CCOC(=O)NN=C(CC)c1cc(Cl)ccc1NS(=O)(=O)C(F)(F)F [Compound 88] | 6 | 25 | – |
| CC/C(=N\N(C)C1CCCCC1)c1cc(Cl)ccc1NS(=O)(=O)C(F)(F)F [Compound 217] | 3 | 48 | – |
| CCCN(N=C(C)c1cc(Cl)ccc1NS(=O)(=O)C(F)(F)F)c1cccc(Cl)c1 [Compound 106] | 0 | 25 | – |
| CC(=NN1CCCCC1)c1cc2c(cc1NS(=O)(=O)C(F)(F)F)OCO2 [Compound 181] | 7 | 16 | – |
| CC(=NN(C)c1ccccc1)c1ccc(NS(=O)(=O)C(F)(F)F)cc1 [Compound 164] | 8 | 72 | – |
| CC(=NNc1ccc(Cl)cc1)c1ccc(NS(=O)(=O)C(F)(F)F)cc1 [Compound 165] | 6 | 7 | – |
| O=S(=O)(Nc1ccc(Cl)cc1C1=NN(c2ccc(Cl)cc2)CC1)C(F)(F)F [Compound 234] | 14 | 41 | – |
| CC(=NN(C)c1ccccn1)c1cc(Cl)ccc1NS(=O)(=O)C(F)(F)F [Compound 195] | 2 | 30 | – |
| Cn1nccc1-c1cc(Cl)ccc1NS(=O)(=O)C(F)(F)F (single isomer, unassigned) [Compound 93, N-[2-(1-methyl-1H-pyrazol-5-yl)-4-chlorophenyl]-trifluoromethanesulfonamide] | – | – | C. felis Mortality (%) 8 h (8 h): 5%; C. felis Mortality (%) 24 h (24 h): 9% |
| CC(=Nn1c(=O)[nH]nc(C)c1=O)c1cc(Cl)ccc1NS(=O)(=O)C(F)(F)F [Compound 199] | 3 | 3 | – |
| COC(=O)NN=C(C)c1cc(Cl)ccc1NS(=O)(=O)C(F)(F)F [Compound 78, N-[2-[1-(methoxycarbonylhydrazono)ethyl]-4-chlorophenyl]-trifluoromethanesulfonamide] | – | – | C. felis Mortality (%) 8 h (8 h): 16%; C. felis Mortality (%) 24 h (24 h): 16% |
| CC(=Nn1cccn1)c1cc(Cl)ccc1NS(=O)(=O)C(F)(F)F [Compound 185] | 2 | 11 | – |
| CC(=NN(c1cc(Cl)ccc1Cl)C(C)C)c1cc(Cl)ccc1NS(=O)(=O)C(F)(F)F [Compound 144] | 7 | 42 | – |
| CC(=NN(CCC#N)CCC#N)c1cc(Cl)ccc1NS(=O)(=O)C(F)(F)F [Compound 202] | 3 | 24 | – |
| CC(=NN(c1ccccc1F)C(C)C)c1cc(Cl)ccc1NS(=O)(=O)C(F)(F)F [Compound 46] | 44 | 100 | – |
| CC(=Nn1c(C)n[nH]c1=O)c1cc(Cl)ccc1NS(=O)(=O)C(F)(F)F [Compound 192] | 3 | 5 | – |
| CC(=NNC(=O)OC(C)(C)C)c1cc(Cl)ccc1NS(=O)(=O)C(F)(F)F [Compound 86] | 4 | 26 | – |
| CCCN(N=C(C)c1cc(Cl)ccc1NS(=O)(=O)C(F)(F)F)c1cccc(Cl)c1Cl [Compound 200] | 2 | 58 | – |
| O=S(=O)(Nc1ccc(Cl)cc1C1=NN(c2cccc(Cl)c2)CC1)C(F)(F)F [Compound 231] | 12 | 42 | – |

Reference: patent US20070238700A1, “N-PHENYL-1,1,1-TRIFLUOROMETHANESULFONAMIDE HYDRAZONE DERIVATIVE COMPOUNDS AND THEIR USAGE IN CONTROLLING PARASITES” (priority 2006, published 2007)
